Assay [1] deals with rabbit polyclonal anti-LAM antibody. Nature of the assay: Peptide ELISA binding assay with rabbit polyclonal anti-LAM antibody. Particulars: for OD values, binding of rabbit polyclonal anti-LAM antibody by ELISA: coating 10 μg/ml. The protocol:
The ELISA plate wells were coated with by adding each peptide (2 μg in 0.1M NaHCO3, pH 8.6) and incubating overnight at 4° C. After overnight incubation, plates were blocked with BSA (5 mg/ml) for 1 hour at 4° C. For controls, wells were coated with same amount of LAM or BSA. After washing with TBST, diluted 143 anti-LAM antibodies were added to the ELISA plate and incubated at room temperature for 1 hour. Plates were washed with TBST and HRP-conjugated secondary antibodies were added and incubated for 1 hour. After washing 3 times with TBST, 50 μl of the 1-Step™ Ultra TMB-ELISA (Thermo Scientific Co, Ltd) substrates was added in the dark. After color development, 50 μl of 2M sulfuric acid was added to stop the reaction and absorbance was measured at 450 nm.
On the technique in general: An ELISA detects its analyte on a solid surface through an enzyme-linked reagent.

Assay [2] deals with two monoclonal antibodies against M. tuberculosis lipoarabinomannan (LAM). Nature of the assay: Binding of recombinant M13 phages displaying the peptides to the anti-LAM mAbs. The conditions noted are these: peptide displayed on the g3p minor coat protein of recombinant M13 phage.
Assay [3] deals with Mouse anti-LAM antibodies. Nature of the assay: ELISA with serum from LAM vaccinated mice against various antigens. It is filed as binding. Particulars: Swiss-Webster mice vaccinated with LAM combined with alum; FIG. 2D. The protocol: To perform ELISAS, 96-well ELISA plates (Greiner Bio-One Catalogue #655-001) were coated with 10 μg of corresponding coating antigens: HS peptide, HSSR peptide, Baculovirus, SG peptide, SGSR peptide, or LAM resuspended in coating buffer (0.1M NaHCO3, pH 8.6). After overnight coating at 4° C., blocking (5% skim milk in PBS) was performed for 1 hour at room temperature. After washing 3 times with washing buffer (0.01% Tween-20 in PBS), mouse serum was added to the appropriate wells and binding proceeded at room temperature for 1 hour. […] After incubating for 1 hour at room temperature, the plate was washed 3 times with TBST and 50 μl 179 of the 1-Step™ Ultra TMB180 ELISA substrate (Thermo Scientific) was added. 50 ul of 2M sulfuric acid was then added to stop the reaction and absorbance was measured at 450 nm.

Regarding “CISLTEWSMWYRH [Peptide P8, previously published LAM mimotope peptide, reference compound]”, the “detection of KLH-conjugated peptide by rabbit anti-LAM polyclonal antibody above control” value in assay [1] (peptides conjugated to KLH vs scramble control, only at the 1:1000 dilution, FIG. 1B-E) is recorded as “could be specifically detected”. Turning to HSFKWLDSPRLR [HS peptide], the “OD values, binding of rabbit polyclonal anti-LAM antibody by ELISA” value in assay [1] (HS peptide experiment, FIG. 2B) stood at 0.45. Besides, in assay [2], the “binding affinity with both mAbs” value is “strong binding affinity”. For the substance “KLH alone: keyhole limpet hemocyanin carrier protein [reference compound]”, the “binding by serum from LAM vaccinated mice” value in assay [3] is listed as “not”. For SGVYKVAYDWQH [SG peptide], the “OD values, binding of rabbit polyclonal anti-LAM antibody by ELISA” value in assay [1] (SG peptide experiment, FIG. 2C) was 0.32. Further, the “binding affinity with both mAbs” value in assay [2] is given as “strong binding affinity”.

Source of the values: patent publication US20190269771A1, “PEPTIDE MIMOTOPE THAT INDUCES AN IMMUNE RESPONSE AGAINST MYCOBACTERIUM TUBERCULOSIS LIPOARABINOMANNAN (LAM)” (priority 2017, published 2019).
